The results in this text go back to patent US10131679B2, “Substituted dihydropyrrolopyrazole compound” (UBE INDUSTRIES, LTD., priority 2014, dated 2018).

Molecules are shown by their SMILES.

For one test, the system named is IL-6 production in rat adjuvant arthritis model. Description: IL-6 production inhibition test in rat adjuvant arthritis model. The settings on record: single dose, administration of 3 mg/kg, left ankle, read-out: rate of inhibition of IL-6 production. The test is classed as in vivo, LEW rats. The protocol:
IL-6 Production Inhibition Test in Rat Adjuvant Arthritis Model
A single-dose drug efficacy test using rat adjuvant arthritis models was carried out by modifying the method of Magari. K et al. (J. Rheumatol. 30 (10), 2193 (2003)).
LEW rats (female, supplied by Charles River Laboratories Japan, Inc.) were used as laboratory animals. An adjuvant prepared from heat-killed bacteria of Mycobacterium butyricum (264010 manufactured by Difco Laboratories Ltd.) and liquid paraffin (manufactured by Wako Pure Chemical Industries, Ltd., Code No. 128-04375) was subcutaneously administered as a phlogogenic material to the right hind leg footpads of the rats under inhalation anesthesia with isoflurane (manufactured by Wako Pure Chemical Industries, Ltd., Code No. 099-06571) to prepare arthritis models. Approximately 2 weeks later, left paw edema was measured with a paw volume meter (model TK-101CMP manufactured by Unicorn Co., Ltd.), and grouping was performed such that the average volume of left paw edema was equal among groups. A test compound or only a solvent was administered, after a certain time, they were sacrificed by exsanguination from the abdomens under isoflurane anesthesia, and the left ankles were collected, chopped, and frozen by using liquid nitrogen. The collected left ankle portions were disrupted in CRYOPress (model CP-100WP manufactured by Microtec Co., Ltd.), then supplemented with a buffer solution, shaken overnight at 4° C., and then centrifuged to collected a supernatant. The preparation of the buffer solution was performed by mixing a Tris buffer solution (pH 7.4), sodium chloride (NaCl), phenyl methyl sulfonyl fluoride (PMSF), Triton X-100, EDTA-free complete tablets (manufactured by F. Hoffmann-La Roche, Ltd., REF. 11 873 580 001), and Otsuka distilled water (manufactured by Otsuka Pharmaceutical Co., Ltd., product No. 1323). IL-6 in the collected supernatant was measured by using a sandwich ELISA kit (manufactured by R&D Systems, Inc., Catalog No. S6050).
The IL-6 content of each sample was calculated from the calibration curve of Standard IL-6 included in the kit. When the amount of IL-6 produced in the solvent administration control group was defined as 100%, the rate of inhibition of IL-6 production (%) at each dose of the test compound was calculated.
As to `CCOC[C@@H](NC(=O)N1Cc2c(NC(=O)C3([Si](C)(C)C)CCC3)n[nH]c2C1(C)C)c1ccccc1` [IV-139, (S)—N-(2-Ethoxy-1-phenylethyl)-6,6-dimethyl-3-[1-(trimethylsilyl)cyclobutanecarboxamido]-4,6-dihydropyrrolo[3,4-c]pyrazole-5(1H)-carboxamide], the inhibition in vivo at 3 mg/kg is ≥ 50%.
Consider `CC1(C)c2[nH]nc(NC(=O)C3([Si](C)(C)C)CCC3)c2CN1C(=O)C(CO)c1ccccc1` (stereo not drawn) [IV-632, N-[5-(3-Hydroxy-2-phenylpropanoyl)-6,6-dimethyl-1,4,5,6-tetrahydropyrrolo[3,4-c]pyrazol-3-yl]-1-(trimethylsilyl)cyclobutanecarboxamide], for which the inhibition in vivo at 3 mg/kg was ≥ 50%.
Still for that read-out and setting: for `CC(C)(O)C[C@@H](NC(=O)N1Cc2c(NC(=O)C3([Si](C)(C)C)CCC3)n[nH]c2C1(C)C)c1ccccc1` [IV-299, (R)—N-(3-Hydroxy-3-methyl-1-phenylbutyl)-6,6-dimethyl-3-[1-(trimethylsilyl)cyclobutanecarboxamido]-4,6-dihydropyrrolo[3,4-c]pyrazole-5(1H)-carboxamide] the value was ≥ 50%; for `COC[C@@H](NC(=O)N1Cc2c(NC(=O)C3([Si](C)(C)C)CCC3)n[nH]c2C1(C)C)c1ccccc1` [IV-123, (S)—N-(2-Methoxy-1-phenylethyl)-6,6-dimethyl-3-[1-(trimethylsilyl)cyclobutanecarboxamido]-4,6-dihydropyrrolo[3,4-c]pyrazole-5(1H)-carboxamide], ≥ 50%; for `CC1(C)c2[nH]nc(NC(=O)C3([Si](C)(C)C)CCC3)c2CN1C(=O)N[C@H](CCO)c1ccccc1` [IV-227, (R)—N-(3-Hydroxy-1-phenylpropyl)-6,6-dimethyl-3-[1-(trimethylsilyl)cyclobutanecarboxamido]-4,6-dihydropyrrolo[3,4-c]pyrazole-5(1H)-carboxamide], ≥ 50%.

Staying with this test, now noted: single dose, administration of 10 mg/kg, left ankle, read-out: rate of inhibition of IL-6 production.
As for `CC1(C)c2[nH]nc(NC(=O)C(C)(C)[Si](C)(C)C)c2CN1C(=O)N[C@H](CO)c1ccccc1` [II-114, (S)—N-(2-Hydroxy-1-phenylethyl)-6,6-dimethyl-3-[2-methyl-2-(trimethylsilyl)propanamido]-4,6-dihydropyrrolo[3,4-c]pyrazole-5(1H)-carboxamide], the inhibition in vivo at 10 mg/kg is ≥ 50%.
Same read-out and setting: for `CC(C)(O)[C@@H](NC(=O)N1Cc2c(NC(=O)C3([Si](C)(C)C)CCC3)n[nH]c2C1(C)C)c1ccccc1` [IV-171, (S)—N-(2-Hydroxy-2-methyl-1-phenylpropyl)-6,6-dimethyl-3-[1-(trimethylsilyl)cyclobutanecarboxamido]-4,6-dihydropyrrolo[3,4-c]pyrazole-5(1H)-carboxamide] the value was ≥ 50%.
The same measure, in the same setting: next, `CN(C(=O)N1Cc2c(NC(=O)C3([Si](C)(C)C)CCC3)n[nH]c2C1(C)C)[C@H](CO)c1ccccc1` [IV-119, (S)—N-(2-Hydroxy-1-phenylethyl)-N,6,6-trimethyl-3-[1-(trimethylsilyl)cyclobutanecarboxamido]-4,6-dihydropyrrolo[3,4-c]pyrazole-5(1H)-carboxamide]: ≥ 50%.
The same measure, in the same setting: next, `CC1(C)c2[nH]nc(NC(=O)C3([Si](C)(C)C)CCC3)c2CN1C(=O)O[C@H](CO)c1ccccc1` [IV-2, (S)-2-Hydroxy-1-phenylethyl 6,6-dimethyl-3-[1-(trimethylsilyl)cyclobutanecarboxamido]-4,6-dihydropyrrolo[3,4-c]pyrazole-5(1H)-carboxylate]: ≥ 50%.
